In patent US8530619B2, “Identification of the hepcidin binding site on ferroportin” (University of Utah Research Foundation, priority 2007, dated 2013):
No end group written: not given here.

Assays:
[1] = target: T1, I-HBD (hepcidin binding domain of ferroportin) (Homo sapiens, UniProt Q9NP59); assay: Competition with 125I-hepcidin for binding to I-HBD beads
T1 construct: made in house; host or cells: chemical synthesis
Procedure: FIGS. 2A-C illustrates that the binding of ^125I-hepcidin to HBD is specific and temperature dependent. In FIG. 2A peptides (HBD, scrambled-HBD or mutant (C326Y HBD) were conjugated to beads and ^125I-hepcidin was added to the bead-immobilized peptides (I-HBD) for 18 hours at 37° C. (black bars) or 4° C. (grey bars). The beads were washed and the amount of ^125I-hepcidin bound to the I-HBD was determined. In FIG. 2B a sub saturating concentration of ^125I-hepcidin (0.6 μg/ml) was incubated with I-HBD for 18 hours at 37° C. in the presence or absence of known concentrations of either hepcidin 25 (Hep 25-open circles) or hepcidin 25 synthesized with a tyrosine substitution at position M21 (Y-Hep 25) and the amount of radioactivity bound to the I-HBD determined. In FIG. 2C sub saturating levels of ^125I-hepcidin were incubated with I-HBD at different temperatures.
The binding of ^125I-hepcidin could be reduced by addition of native non-radioactive hepcidin with an apparent K of approximately 200 nM (FIG. 2B). There was no binding of ^125I-hepcidin to I-HBD at 4° C. and ^125I-hepcidin bound to I-HBD at 37° C. was released when subsequently placed at 4° C. (data not shown).
HBD peptides were immobilized by covalently attaching them to agarose beads. […] The fluid was removed and the radioactivity bound to beads was determined by gamma counting (Perkin/Elmer).

E. coli = assay: Binding of hepcidin to E. coli; conditions: low temperature hepcidin dimer; preliminary study
Procedure: The five amino terminal amino acids of hepcidin were previously shown to be critical for binding of hepcidin to Fpn (7). […] Hepcidin is amphipathic and it is hypothesized that the hydrophobic surface of hepcidin monomers are interacting at 4° C. to form a dimer. Hepcidin, like other defensins, interacts through its hydrophobic surface with bacterial membranes (11).

I-HBD = target: T2, I-HBD (Homo sapiens, UniProt Q9NP59); assay: Competition with 125I-labeled hepcidin on HBD-coated 96-well plate; format: binding; conditions: 96-well plate, 0, 50, 100, 500 ng hepcidin, room temperature, 4 hours
T2 construct: made in house; host or cells: chemical synthesis
Procedure: In accordance with the invention, HBD can be used in an assay system to determine levels of hepcidin in a test sample. Accordingly, unlabeled HBD is immobilized on a solid substrate. HBD peptides were immobilized by covalently attaching them to a 96-well plate. Immobilization was performed using Reacti-Bind Amine-binding 96-well plates (Pierce), following the manufacturer's instructions. […] The plates were incubated at room temperature overnight. The peptide solution was then removed from the wells and a protein blocking buffer, such as dry milk in phosphate buffer saline, was added to each well and allowed to sit for two hours at 37° C. The plates were then washed with warm washing buffer to remove unbound material. HBD-coated plates were used in an assay to detect hepcidin as follows: […] The plate was incubated at room temperature for 4 hours. […] (FIG. 7)

[2] = Solubility of the peptide; format: physicochemical; conditions: two arginines added at amino and carboxyl terminals
Procedure: Peptides were synthesized at the DNA/Peptide Core Facility, University of Utah, Salt Lake City, Utah. The peptides were synthesized with two arginines added at the amino and carboxyl terminals. […] Microscope analysis was carried out using an Olympus BX51 microscope (Olympus, Tokyo, Japan). Images were acquired using Picture Frame 2.5 software (Olympus America, East Muskogee, Okla.). All experiments were repeated a minimum of 5 times.

solubility of the peptide [2]	Compound	binding to HBD / I-HBD [1]	binding to E. coli (E. coli)	competition with 125I-labeled hepcidin for binding to I-HBD (I-HBD)
	CC[C@H](C)[C@@H]1NC(=O)[C@@H](NC(=O)[C@@H](NC(=O)[C@@H]2CCCN2C(=O)[C@H](Cc2ccccc2)NC(=O)[C@H](Cc2c[nH]cn2)NC(=O)[C@@H](NC(=O)[C@@H](N)CC(=O)O)[C@@H](C)O)[C@@H](C)CC)CSSC[C@@H](C(=O)N[C@@H](CCCCN)C(=O)N[C@H](C(=O)O)[C@@H](C)O)NC(=O)[C@@H]2CSSC[C@@H]3NC(=O)[C@@H]4CSSC[C@H](NC(=O)[C@H](Cc5ccccc5)NC1=O)C(=O)N[C@@H](CSSC[C@H](NC(=O)[C@H](CCCCN)NC(=O)[C@H](CO)NC(=O)[C@H](CCCNC(=N)N)NC(=O)[C@H](Cc1c[nH]cn1)NC3=O)C(=O)NCC(=O)N[C@@H](CCSC)C(=O)N2)C(=O)NCC(=O)N4 [hepcidin]	does bind	cannot bind to E. coli	able to compete for binding to I-HBD
increased the solubility	RRFDCITTGYAYTQGLSGSILSRR [HBD wt]			
